ChEMBL document CHEMBL5518230, “Identification of a Novel Selective CDK9 Inhibitor for the Treatment of CRC: Design, Synthesis, and Biological Activity Evaluation” (J Med Chem, 2024)
Calls of active or inactive are those of the source. No cut-off for these calls is given here.

How the values were obtained:
[1] = molecular target: Cyclin-dependent kinase 5 (Homo sapiens, UniProt Q00535); experiment: Inhibition of CDK5 (unknown origin)
[2] = molecular target: Cyclin-dependent kinase 7 (Homo sapiens, UniProt P50613); experiment: Inhibition of CDK7 (unknown origin)
Sequence of Cyclin-dependent kinase 7 (P50613 whole entry): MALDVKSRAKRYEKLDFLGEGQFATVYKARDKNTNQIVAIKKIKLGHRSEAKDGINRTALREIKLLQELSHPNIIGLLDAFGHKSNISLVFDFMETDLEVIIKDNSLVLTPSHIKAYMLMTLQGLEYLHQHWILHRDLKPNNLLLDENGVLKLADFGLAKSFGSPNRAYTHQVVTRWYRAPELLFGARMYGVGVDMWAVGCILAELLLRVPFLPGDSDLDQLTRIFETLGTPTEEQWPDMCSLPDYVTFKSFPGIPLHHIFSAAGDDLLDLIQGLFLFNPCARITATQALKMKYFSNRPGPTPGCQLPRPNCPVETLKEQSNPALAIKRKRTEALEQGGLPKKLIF

[3] = molecular target: Cyclin-dependent kinase 12 (Homo sapiens, UniProt Q9NYV4); experiment: Inhibition of CDK12 (unknown origin)
Sequence of Cyclin-dependent kinase 12 (Q9NYV4 whole entry): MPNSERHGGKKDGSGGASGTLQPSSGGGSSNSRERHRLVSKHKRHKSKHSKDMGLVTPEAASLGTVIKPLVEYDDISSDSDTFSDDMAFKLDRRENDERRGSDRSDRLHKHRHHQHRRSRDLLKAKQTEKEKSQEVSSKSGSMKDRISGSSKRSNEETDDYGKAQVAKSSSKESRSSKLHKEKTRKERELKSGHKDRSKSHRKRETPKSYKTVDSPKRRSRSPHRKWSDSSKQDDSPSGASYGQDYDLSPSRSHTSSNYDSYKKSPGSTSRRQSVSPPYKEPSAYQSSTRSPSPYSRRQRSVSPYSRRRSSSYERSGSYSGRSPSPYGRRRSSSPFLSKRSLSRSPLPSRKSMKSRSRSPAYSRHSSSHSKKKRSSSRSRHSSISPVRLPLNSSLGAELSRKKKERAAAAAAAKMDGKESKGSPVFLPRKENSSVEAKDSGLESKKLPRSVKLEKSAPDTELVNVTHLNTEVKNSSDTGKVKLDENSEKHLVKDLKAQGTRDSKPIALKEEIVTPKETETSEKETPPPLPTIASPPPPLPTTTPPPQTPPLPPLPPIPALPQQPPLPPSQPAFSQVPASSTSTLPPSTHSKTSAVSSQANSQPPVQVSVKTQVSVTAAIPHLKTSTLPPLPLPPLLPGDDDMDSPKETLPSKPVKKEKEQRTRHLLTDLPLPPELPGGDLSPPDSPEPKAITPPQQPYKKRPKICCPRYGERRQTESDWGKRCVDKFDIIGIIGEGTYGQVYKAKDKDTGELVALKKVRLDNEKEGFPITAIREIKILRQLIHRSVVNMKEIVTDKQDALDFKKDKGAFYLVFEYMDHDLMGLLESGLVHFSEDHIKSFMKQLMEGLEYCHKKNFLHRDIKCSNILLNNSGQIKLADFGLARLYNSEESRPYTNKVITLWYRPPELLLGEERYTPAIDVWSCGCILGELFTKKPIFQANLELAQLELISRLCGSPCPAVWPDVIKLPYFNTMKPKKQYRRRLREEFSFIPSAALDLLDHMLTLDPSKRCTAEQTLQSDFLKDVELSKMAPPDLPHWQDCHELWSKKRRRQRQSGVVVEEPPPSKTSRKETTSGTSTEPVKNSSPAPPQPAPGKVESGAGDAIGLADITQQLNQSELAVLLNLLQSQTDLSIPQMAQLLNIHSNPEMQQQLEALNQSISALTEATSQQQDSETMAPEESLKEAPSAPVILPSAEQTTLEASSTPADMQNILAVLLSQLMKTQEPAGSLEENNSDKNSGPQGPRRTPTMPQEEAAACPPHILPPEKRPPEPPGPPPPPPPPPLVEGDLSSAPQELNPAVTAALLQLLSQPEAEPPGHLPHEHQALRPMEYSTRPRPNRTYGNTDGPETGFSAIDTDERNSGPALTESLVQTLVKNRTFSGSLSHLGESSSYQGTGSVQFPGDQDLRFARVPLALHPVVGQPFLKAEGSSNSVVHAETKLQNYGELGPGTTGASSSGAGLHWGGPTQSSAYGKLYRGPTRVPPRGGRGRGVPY

[4] = Intrinsic microsomal clearance in human liver microsomes at 100 uM measured upto 60 mins in presence of NADPH by LC-MS/MS analysis; assay type: ADME, Microsome; conditions: read-out: CLH
[5] = Intrinsic clearance in human liver microsomes at 100 uM measured upto 60 mins in presence of NADPH by LC-MS/MS analysis; assay type: ADME, Microsome; conditions: 1 h
[6] = Stability in human liver microsomes assessed as compound remaining at 100 uM measured upto 60 mins in presence of NADPH by LC-MS/MS analysis; assay type: ADME, Microsome; conditions: read-out: Stability
CYP1A2 = molecular target: T1, CYP1A2 (Homo sapiens, UniProt P05177); experiment: Inhibition of CYP1A2 in human liver microsomes using alpha-naphthoflavone as […] at 10 uM preincubated for 10 mins followed by NADPH addition measured after 15 mins by LC-MS/MS analysis relative to control; assay type: ADME, Microsome; conditions: time 25 min
T1 sequence (P05177 whole entry): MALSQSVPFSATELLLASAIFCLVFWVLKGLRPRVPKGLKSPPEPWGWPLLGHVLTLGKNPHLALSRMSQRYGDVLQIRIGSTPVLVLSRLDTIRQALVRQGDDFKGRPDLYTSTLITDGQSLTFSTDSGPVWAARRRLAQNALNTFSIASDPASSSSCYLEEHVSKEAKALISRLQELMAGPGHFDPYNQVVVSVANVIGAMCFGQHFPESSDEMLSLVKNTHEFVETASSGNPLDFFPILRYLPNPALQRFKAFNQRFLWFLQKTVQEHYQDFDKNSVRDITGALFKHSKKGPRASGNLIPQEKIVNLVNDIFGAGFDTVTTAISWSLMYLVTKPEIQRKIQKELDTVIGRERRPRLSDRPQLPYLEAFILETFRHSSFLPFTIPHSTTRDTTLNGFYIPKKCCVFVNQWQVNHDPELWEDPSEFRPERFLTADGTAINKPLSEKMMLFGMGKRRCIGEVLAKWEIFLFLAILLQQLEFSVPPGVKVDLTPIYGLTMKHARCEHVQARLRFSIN

CYP2D6 = CYP2D6 (Homo sapiens, UniProt P10635); experiment: Inhibition of CYP2D6 in human liver microsomes using quinidine as […] at 10 uM preincubated for 10 mins followed by NADPH addition measured after 15 mins by LC-MS/MS analysis relative to control; assay type: ADME, Microsome; conditions: time 25 min
Sequence of CYP2D6 (P10635 whole entry): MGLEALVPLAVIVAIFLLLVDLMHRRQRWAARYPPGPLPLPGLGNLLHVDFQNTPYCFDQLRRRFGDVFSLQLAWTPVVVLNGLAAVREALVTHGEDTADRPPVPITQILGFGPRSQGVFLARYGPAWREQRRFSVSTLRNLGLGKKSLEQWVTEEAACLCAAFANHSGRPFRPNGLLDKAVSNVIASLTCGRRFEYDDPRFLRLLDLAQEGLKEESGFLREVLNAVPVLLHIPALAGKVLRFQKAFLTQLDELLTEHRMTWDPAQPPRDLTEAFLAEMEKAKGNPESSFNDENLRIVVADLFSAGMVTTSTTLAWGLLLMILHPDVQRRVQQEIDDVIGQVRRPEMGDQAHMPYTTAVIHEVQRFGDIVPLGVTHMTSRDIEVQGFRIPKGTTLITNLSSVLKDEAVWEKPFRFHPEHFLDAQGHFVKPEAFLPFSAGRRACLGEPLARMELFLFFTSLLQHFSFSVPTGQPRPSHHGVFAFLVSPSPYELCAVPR

CYP3A4 = CYP3A4 (Homo sapiens, UniProt P08684); experiment: Inhibition of CYP3A4 in human liver microsomes using ketoconazole as […] at 10 uM preincubated for 10 mins followed by NADPH addition measured after 15 mins by LC-MS/MS analysis relative to control; assay type: ADME, Microsome; conditions: probe ketoconazole, time 25 min
Sequence of CYP3A4 (P08684 whole entry): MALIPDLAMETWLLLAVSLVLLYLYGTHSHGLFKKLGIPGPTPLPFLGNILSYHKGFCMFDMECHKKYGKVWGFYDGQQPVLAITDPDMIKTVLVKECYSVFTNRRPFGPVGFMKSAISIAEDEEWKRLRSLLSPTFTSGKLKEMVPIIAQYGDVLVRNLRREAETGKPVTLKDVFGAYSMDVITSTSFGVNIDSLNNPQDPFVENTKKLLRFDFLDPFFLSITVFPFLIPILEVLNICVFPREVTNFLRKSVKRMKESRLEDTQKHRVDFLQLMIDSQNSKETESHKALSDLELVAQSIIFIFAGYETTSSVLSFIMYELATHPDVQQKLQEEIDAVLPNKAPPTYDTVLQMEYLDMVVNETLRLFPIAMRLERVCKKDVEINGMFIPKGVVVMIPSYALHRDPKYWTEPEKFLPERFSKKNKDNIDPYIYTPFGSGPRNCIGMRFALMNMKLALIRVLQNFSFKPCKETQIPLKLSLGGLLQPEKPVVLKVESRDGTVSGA

[7] = AUC (0 to t) in Sprague-Dawley rat at 2 mg/kg,iv administration measured for 0.25 to 24 hrs by LC-MS/MS analysis; assay type: ADME, organism-based; conditions: in vivo, time 0.25-24 hrs
[8] = Apparent volume of distribution in Sprague-Dawley rat at 2 mg/kg,iv administration measured for 0.25 to 24 hrs by LC-MS/MS analysis; assay type: ADME, organism-based; conditions: in vivo, time 0.25-24 hrs, read-out: Vz
[9] = Bioavailability in Sprague-Dawley rat at 2 mg/kg,iv administration measured for 0.25 to 24 hrs by LC-MS/MS analysis; assay type: ADME, organism-based; conditions: in vivo, time 0.25-24 hrs
[10] = Tmax in Sprague-Dawley rat at 10 mg/kg,po administration measured for 0.25 to 24 hrs by LC-MS/MS analysis; assay type: ADME, organism-based; conditions: in vivo, time 0.25-24 hrs
[11] = AUC (0 to infinity) in Sprague-Dawley rat at 10 mg/kg,po administration measured for 0.25 to 24 hrs by LC-MS/MS analysis; assay type: ADME, organism-based; conditions: in vivo, time 0.25-24 hrs
[12] = molecular target: Cyclin-dependent kinase 9 (Homo sapiens, UniProt P50750); experiment: Inhibition of human CDK9 at 100 nM by kinase profiling assay relative to control
[13] = molecular target: Serine/threonine-protein kinase Nek1 (Homo sapiens) (UniProt Q96PY6); experiment: Inhibition of human NEK1 at 100 nM by kinase profiling assay relative to control
[14] = molecular target: Interleukin-1 receptor-associated kinase 1 (Homo sapiens) (UniProt P51617); experiment: Inhibition of human IRAK1 at 100 nM by kinase profiling assay relative to control
[15] = molecular target: Homeodomain-interacting protein kinase 1 (Homo sapiens) (UniProt Q86Z02); experiment: Inhibition of human HIPK1 at 100 nM by kinase profiling assay relative to control
Sequence of Homeodomain-interacting protein kinase 1 (Homo sapiens) (Q86Z02 whole entry, looked up): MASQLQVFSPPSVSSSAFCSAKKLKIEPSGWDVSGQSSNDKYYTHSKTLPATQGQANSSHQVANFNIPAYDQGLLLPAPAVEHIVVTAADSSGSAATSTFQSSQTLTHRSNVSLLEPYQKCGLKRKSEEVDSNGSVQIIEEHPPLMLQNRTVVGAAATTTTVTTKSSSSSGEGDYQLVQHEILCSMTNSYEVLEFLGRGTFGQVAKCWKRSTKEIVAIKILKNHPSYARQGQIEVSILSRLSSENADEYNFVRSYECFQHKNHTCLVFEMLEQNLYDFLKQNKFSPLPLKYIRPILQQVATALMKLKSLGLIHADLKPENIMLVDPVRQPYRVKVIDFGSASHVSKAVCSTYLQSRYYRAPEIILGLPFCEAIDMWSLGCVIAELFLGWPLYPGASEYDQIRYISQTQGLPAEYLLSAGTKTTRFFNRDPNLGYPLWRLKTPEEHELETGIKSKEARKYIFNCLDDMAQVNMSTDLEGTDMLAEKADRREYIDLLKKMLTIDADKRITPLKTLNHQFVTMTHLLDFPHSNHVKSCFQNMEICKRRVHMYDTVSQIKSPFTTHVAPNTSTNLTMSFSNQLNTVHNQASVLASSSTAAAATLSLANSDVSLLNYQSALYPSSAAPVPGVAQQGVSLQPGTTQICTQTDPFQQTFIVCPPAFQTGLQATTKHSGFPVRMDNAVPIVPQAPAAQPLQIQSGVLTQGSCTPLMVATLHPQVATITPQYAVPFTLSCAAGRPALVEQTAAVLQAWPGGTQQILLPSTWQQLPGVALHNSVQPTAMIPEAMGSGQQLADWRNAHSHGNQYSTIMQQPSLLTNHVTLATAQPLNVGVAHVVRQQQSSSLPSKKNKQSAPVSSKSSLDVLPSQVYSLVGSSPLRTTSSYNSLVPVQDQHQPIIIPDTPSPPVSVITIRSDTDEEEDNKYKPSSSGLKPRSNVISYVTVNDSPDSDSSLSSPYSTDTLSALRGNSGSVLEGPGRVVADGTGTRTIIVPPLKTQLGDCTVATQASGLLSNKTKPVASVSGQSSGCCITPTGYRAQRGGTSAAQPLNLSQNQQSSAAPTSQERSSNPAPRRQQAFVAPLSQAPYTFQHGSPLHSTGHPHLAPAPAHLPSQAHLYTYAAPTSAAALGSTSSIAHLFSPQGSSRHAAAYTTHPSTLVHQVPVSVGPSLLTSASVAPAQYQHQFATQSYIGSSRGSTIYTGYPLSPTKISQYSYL

[16] = molecular target: Inhibitor of nuclear factor kappa-B kinase subunit alpha (Homo sapiens) (UniProt O15111); experiment: Inhibition of human IKKalpha at 100 nM by kinase profiling assay relative to control
Sequence of Inhibitor of nuclear factor kappa-B kinase subunit alpha (Homo sapiens) (O15111 whole entry): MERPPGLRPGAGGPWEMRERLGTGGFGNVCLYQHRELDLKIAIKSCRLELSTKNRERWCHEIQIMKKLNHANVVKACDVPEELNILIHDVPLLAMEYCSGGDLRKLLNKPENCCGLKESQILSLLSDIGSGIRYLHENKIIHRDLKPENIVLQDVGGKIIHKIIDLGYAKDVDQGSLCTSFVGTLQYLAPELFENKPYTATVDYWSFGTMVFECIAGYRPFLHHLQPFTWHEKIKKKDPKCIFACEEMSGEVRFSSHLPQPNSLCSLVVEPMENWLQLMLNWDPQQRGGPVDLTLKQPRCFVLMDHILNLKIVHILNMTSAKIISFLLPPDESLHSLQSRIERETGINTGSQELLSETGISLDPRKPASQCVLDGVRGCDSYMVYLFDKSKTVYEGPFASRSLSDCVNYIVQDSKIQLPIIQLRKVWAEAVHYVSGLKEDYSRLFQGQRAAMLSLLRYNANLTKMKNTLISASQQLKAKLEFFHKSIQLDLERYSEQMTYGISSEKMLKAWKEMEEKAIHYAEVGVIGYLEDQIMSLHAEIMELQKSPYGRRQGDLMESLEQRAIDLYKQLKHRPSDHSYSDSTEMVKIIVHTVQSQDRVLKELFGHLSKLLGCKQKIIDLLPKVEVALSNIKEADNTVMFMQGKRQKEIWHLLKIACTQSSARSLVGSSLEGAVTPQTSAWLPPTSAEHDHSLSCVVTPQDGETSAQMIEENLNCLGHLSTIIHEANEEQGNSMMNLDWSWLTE

HCT-116 [17] = experiment: Induction of apoptosis in human HCT-116 cells assessed as increase in early apoptotic cells incubated for 48 hrs by Annexin V-FITC/PI staining based flow cytometric analysis; assay type: functional, cell-based
HCT-116 [18] = experiment: Induction of apoptosis in human HCT-116 cells assessed as increase in late apoptotic cells incubated for 48 hrs by Annexin V-FITC/PI staining based flow cytometric analysis; assay type: functional, cell-based
HCT-116 [19] = experiment: Induction of apoptosis in human HCT-116 cells assessed as downregulation of RNA polymerase II phosphorylation at Ser2 residue at 25 to 400 nM incubated for 48 hrs by Western blotting analysis; assay type: functional, cell-based; conditions: dose 25-400 nM
HCT-116 [20] = experiment: Induction of apoptosis in human HCT-116 cells assessed as downregulation of […] mRNA expression at 25 to 400 nM incubated for 48 hrs by qRT-PCR analysis; assay type: functional, cell-based; conditions: dose 25-400 nM
HCT-116 [21] = experiment: Induction of apoptosis in human HCT-116 cells assessed as downregulation of c-Myc mRNA expression at 25 to 400 nM incubated for 48 hrs by qRT-PCR analysis; assay type: functional, cell-based; conditions: dose 25-400 nM
HCT-116 [22] = experiment: Antitumor activity against human HCT-116 cells xenografted in BALB/c mouse assessed as tumor growth inhibition at po administrated once daily for 3 weeks; assay type: functional, organism-based
[23] = Toxicity in BALB/c mouse xenografted with human HCT-116 cells assessed as body weight loss at 50 mg/kg,po administrated once daily for 3 weeks; assay type: organism-based; conditions: in vivo, 504 h
HCT-116 [24] = experiment: Antitumor activity against human HCT-116 cells xenografted in BALB/c mouse assessed as downregulation of RNA polymerase II phosphorylation at 50 mg/kg,po administrated once daily for 3 weeks by Western blotting analysis; assay type: functional, organism-based
HCT-116 [25] = experiment: Antitumor activity against human HCT-116 cells xenografted in BALB/c mouse assessed as downregulation of Mcl-1 expression at 25 mg/kg,po administrated once daily for 3 weeks by Western blotting analysis; assay type: functional, organism-based
HCT-116 [26] = experiment: Antitumor activity against human HCT-116 cells xenografted in BALB/c mouse assessed as downregulation of PARP expression at 25 mg/kg,po administrated once daily for 3 weeks by Western blotting analysis; assay type: functional, organism-based
[27] = Toxicity in BALB/c mouse xenografted with human HCT-116 cells assessed as lung morphological change at 25 mg/kg,po administrated once daily for 3 weeks by hematoxylin and eosin staining based microscopic analysis; assay type: organism-based; conditions: in vivo, 504 h

In the case of `CC(C)n1nnc2ccc(-c3ccnc(Nc4cc(C(=O)N5CCCN(C)CC5)ccn4)c3)cc21`, the IC50 [1] is reported as over 500 nM, the IC50 [2] is reported as over 500 nM and the IC50 [3] is reported as over 500 nM. The microsomal CLint at 100 µM [4] was 55.1 µL/min/mg, the CLH [5] was 49.6 µL/min/mg and the remaining at 1 h, 100 µM [6] was 19.6%. For the same compound, the inhibition at 0.25 h, 10 µM (CYP1A2) was 34.6%, the inhibition at 0.25 h, 10 µM (CYP2D6) was 9.9% and the inhibition at 0.25 h, 10 µM (CYP3A4) was 0%. It also gave an AUC(0-t) [7] of 361 ng·h/mL, a Vd [8] of 13.4 L/kg and a bioavailability [9] of 12.3%. For the same compound, the Tmax [10] was 30 min, the AUC(0-inf) [11] was 199 ng·h/mL and the inhibition [12] was over 90%. For the same compound, the inhibition [13] was under 50%, the inhibition [14] was under 50% and the inhibition [15] was under 50%. For the same compound, the inhibition [16] was under 50%, the Activity (HCT-116 [17]) was “Dose-Dependent Effect” and the Activity (HCT-116 [18]) was “Dose-Dependent Effect”. The Activity (HCT-116 [19]) was “Active”, the Activity (HCT-116 [20]) was “Active” and the Activity (HCT-116 [21]) was “Active”. For the same compound, the Activity (HCT-116 [22]) was “Dose-Dependent Effect”, the Activity [23] was “Non-Toxic” and the Activity (HCT-116 [24]) was “Active”. The Activity (HCT-116 [25]) was “Active”, the Activity (HCT-116 [26]) was “Active” and the Activity [27] was “Non-Toxic”.
